The text below walks through data of patent US7842324B2 (Senomyx, Inc., priority 2005, dated 2010).

SMILES strings stand for the structures.

The test system of assay [1] is tasters. Description: Reduced sugar frosted breakfast cereal sensory evaluation. The class given is in vivo, human. The conditions noted are these: for Avgage Sweet Intensity Score: scale 1 to 10. The protocol: A 100 gram sample of a solid sweetener concentrate composition was prepared from 1.000 g of compound 23 and 99.000 g of 10 D.E. maltodextrin. “DE” i.e. “[…]” is a measure of the degree of depolymerization of the corn starches used to manufacture maltodextrins. Fifty grams of the maltodextrin was placed on the bottom of a clean and dried mortar and the 1.000 gr of compound 23 was added to the maltodextrin and slowly ground and mixed into the maltodextrin. The remaining 50 grams of maltodextrin was added to a planetary mixer with a wire whip attachment (KITCHEN AIDE™ Mixer), then the contents of the mortar were placed into the mixer and the mixer was turned on to a slow speed (setting 3), and allowed to mix for 10 minutes. A rubber spatula was used to scrap the walls and bottom of the bowl, then the mixture was blended on low for another 15 minutes. The 100× diluted solid sweetener concentrate composition was stored in an air tight amber glass container. The contents were mixed in the glass container before taking out aliquots of the dry diluted sweet enhancer.
Using the KITCHEN AIDE™ Mixer with the wire whip attachment, the granulated sugar, powdered sugar, gum arabic, dextrin, and the 1:100 diluted sweetener concentrate composition were mixed at speed 3. Water and the HFCS were placed into a 1000 mL stainless steel cylinder and mixed using a LIGHTNIN™ Mixer at 500 to 650 rpms using a 2.5 inch (6.35 cm) impeller with three straight blades until the HFCS was dissolved (5 minutes). A vortex was created by positioning the impeller blades at a 30 to 45° angle. The dry/sugar/gum dry blend was added to the vortex very slowly and allowed to mix until the sugar dissolved and the gum rehydrated. An additional 10 minute mixing time was allowed after the last of the dry blend was added, to form the frosting. […]
Frosted corn flake cereal samples were evaluated using a rank rating design by tasters. […]

For assay [2], the system named is tasters. In words: Reduced sugar ice cream sensory evaluation. The following applies: for Average Sweet Intensity Score: scale 1 to 10. It counts as in vivo, human. The protocol:
A water soluble liquid sweetener concentrate composition comprising 0.1% by weight of Example 23 in USP grade propylene glycol can be prepared by mixing the amide compound and propylene glycol by stirring the composition while warming to about 50° C., then milling the resulting liquid in a Silverson mill with a square basket cage at 300-600 rpms, to further ensure homogeneity of the liquid. An alternative method actually used was that the amide compound was dissolved in ethanol (1:1000 dilution), sonicated for 20 minutes, and 19.80 grams of the diluted sweet enhancer sample was added to the vanilla flavoring (which contains 20-30% ethyl alcohol) and sonicate that sample for an additional 20 minutes.
Heavy cream and whole milk were placed into a 5000 mL stainless steel cylinder and mixed using a LIGHTNIN™ Mixer at 500 to 650 rpms using a 2.5 inch (6.35 cm) impeller with three straight blades. A vortex was created by positioning the impeller blades at a 30 to 45° angle. The sweet enhancer was added using the vanilla/ethanol mixture. Some milk/cream was added back to the weigh dish of the sweet enhancer to ensure all the amide compound was removed from the weigh dish. The sugar/stabilizer mixture was slowly added to the vortex of the mixing milk/cream solution. The resulting solution was mixed for 10 minutes until the sugar dissolved and the stabilizer rehydrated. Care was taken to ensured that no lumps or undissolved stabilizer existed in the solution. The remaining sugar was added to the vortex and mixing was continued for an additional 10 minutes. Egg yolks and vanilla flavor were next added and the mixing continued for 5 more minutes.
Ice cream samples were evaluated by tasters, using a rank rating design. Tasters used an anchored scale from 1 to 10 (1 being no sweetness, 10 being intense sweetness). Three digit coded samples were randomized and the following samples were given to tasters: full sugar version, ⅔ sugared version, ⅔ sugared+3.3 ppm or 6.6 ppm of compound 23. Tasters were instructed to hold the ice cream samples in their mouth for at least 5 seconds, expectorate the sample, and evaluate/rank the “peak” of sweetness intensity.

`CC(C)CNC(=O)C(C)(C)c1ccc(-c2cncc(C#N)c2)cc1` [Compound 23, 2-(4-(5-cyanopyridin-3-yl)phenyl)-N-isobutyl-2-methylpropanamide]: the “sweetness compared with fully sugar frosted cornflake control” value with tasters [1] (9.6 ppm in frosting) is listed as “almost as much sweetness as the fully sugar frosted cornflake control”. Also, the entries for the “Avgage Sweet Intensity Score” value with tasters [1] (⅔ sugared frosted corn flakes + 6.6 ppm) and in the assay on tasters [1] (⅔ sugared frosted corn flakes + 9.6 ppm) were 7.5 and 7.81, respectively. In addition, in the assay with tasters [2] (3.3 ppm and 6.6 ppm in ⅔ sugared ice cream), the “sweetness compared with ⅔ sugared control ice cream” value is on record as “scored higher in sweetness than the ⅔ sugared control sample”. The “sweetness compared with fully sugared ice cream” value in the assay with tasters [2] (6.6 ppm in ⅔ sugared ice cream) is listed as “nearly as sweet as the fully sugared ice cream”. In addition, in the assay on tasters [2] (ice cream samples containing compound 23), the “Qualitative feedback of tasters” value is ““slight lingering” and “slight delay of sweetness””. The “Average Sweet Intensity Score” value in the assay with tasters [2] (⅔ sugared ice cream + 3.3 ppm) was found to be 5.143; with tasters [2] (⅔ sugared ice cream + 6.6 ppm) it was 7.357.
